Patent US11746116B2, “Antibiotic resistance breakers” (KING'S COLLEGE LONDON, priority 2017, dated 2023)
Where “and” joins values, the source holds several entries; their conditions need not be identical. Equal entries are not always repeated.

Columns and labels:
[1] = target: Safetyscreen44 off target panel (Homo sapiens, UniProt P35367)
[2] = target: Safetyscreen44 off target panel (Homo sapiens, UniProt P08172)
[3] = target: Safetyscreen44 off target panel (Homo sapiens, UniProt P20309)
[4] = target: Safetyscreen44 off target panel (Homo sapiens, UniProt P32238)
[5] = target: Safetyscreen44 off target panel (Homo sapiens, UniProt P35372)
[6] = target: Safetyscreen44 off target panel (Homo sapiens, UniProt P25021)
[7] = target: Safetyscreen44 off target panel (Homo sapiens, UniProt P23219)
[8] = target: Safetyscreen44 off target panel (Homo sapiens, UniProt P08908)
[9] = target: Safetyscreen44 off target panel (Rattus norvegicus, UniProt P28564)
[10] = target: Safetyscreen44 off target panel (Homo sapiens, UniProt Q14432)
[11] = target: Safetyscreen44 off target panel (Homo sapiens, UniProt P29274)
[12] = target: Safetyscreen44 off target panel (Homo sapiens, UniProt P06239)
[13] = target: Safetyscreen44 off target panel (Homo sapiens, UniProt P41143)
[14] = target: Safetyscreen44 off target panel (Homo sapiens, UniProt P21554)
[15] = target: Safetyscreen44 off target panel (Homo sapiens, UniProt P23975)
[16] = target: Safetyscreen44 off target panel (Homo sapiens, UniProt P08588)
[17] = target: Safetyscreen44 off target panel (Homo sapiens, UniProt P34972)
[18] = test system: Safetyscreen44 off target panel
[19] = target: Safetyscreen44 off target panel (Homo sapiens, UniProt P11229)
[20] = target: Safetyscreen44 off target panel (Rattus norvegicus, UniProt P21396)
[21] = target: Safetyscreen44 off target panel (Homo sapiens, UniProt Q01959)
[22] = target: Safetyscreen44 off target panel (Homo sapiens, UniProt P43681)
[23] = target: Safetyscreen44 off target panel (Homo sapiens, UniProt P31645)
[24] = target: Safetyscreen44 off target panel (Homo sapiens, UniProt P22303)
[25] = target: Safetyscreen44 off target panel (Homo sapiens, UniProt P41595)
[26] = target: Safetyscreen44 off target panel (Homo sapiens, UniProt P07550)
[27] = target: Safetyscreen44 off target panel (Homo sapiens, UniProt P37288)
[28] = Single dose pharmacokinetics study, oral route; conditions: 20 mg/kg
[29] = male, CD-1 (ICR), mouse, in vivo, po

Chain of Safetyscreen44 off target panel (Homo sapiens, UniProt P08172) (P08172 whole entry): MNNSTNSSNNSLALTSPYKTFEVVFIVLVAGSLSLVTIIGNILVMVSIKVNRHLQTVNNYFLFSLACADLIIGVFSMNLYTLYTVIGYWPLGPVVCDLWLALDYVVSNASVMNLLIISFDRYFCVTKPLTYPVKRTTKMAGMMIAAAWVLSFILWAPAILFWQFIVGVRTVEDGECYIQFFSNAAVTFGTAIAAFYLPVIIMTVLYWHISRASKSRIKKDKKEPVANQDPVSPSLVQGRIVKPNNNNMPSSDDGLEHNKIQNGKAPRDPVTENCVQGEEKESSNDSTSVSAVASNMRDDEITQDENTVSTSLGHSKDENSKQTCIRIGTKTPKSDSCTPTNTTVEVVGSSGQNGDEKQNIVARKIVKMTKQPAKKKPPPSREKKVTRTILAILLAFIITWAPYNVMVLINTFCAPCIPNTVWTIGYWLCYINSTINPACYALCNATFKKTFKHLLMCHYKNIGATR
Chain of Safetyscreen44 off target panel (Homo sapiens, UniProt P29274) (P29274 whole entry): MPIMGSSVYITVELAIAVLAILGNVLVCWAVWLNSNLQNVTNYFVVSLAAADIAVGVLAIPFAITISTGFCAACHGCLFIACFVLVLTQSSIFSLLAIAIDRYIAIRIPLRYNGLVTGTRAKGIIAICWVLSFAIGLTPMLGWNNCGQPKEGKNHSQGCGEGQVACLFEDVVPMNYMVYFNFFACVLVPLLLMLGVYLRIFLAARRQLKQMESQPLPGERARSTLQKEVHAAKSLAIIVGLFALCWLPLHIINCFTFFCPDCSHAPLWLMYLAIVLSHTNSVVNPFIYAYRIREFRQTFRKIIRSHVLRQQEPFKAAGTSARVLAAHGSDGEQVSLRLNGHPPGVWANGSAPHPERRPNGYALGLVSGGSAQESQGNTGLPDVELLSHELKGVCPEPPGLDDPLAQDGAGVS
Chain of Safetyscreen44 off target panel (Homo sapiens, UniProt P23219) (P23219 24-599): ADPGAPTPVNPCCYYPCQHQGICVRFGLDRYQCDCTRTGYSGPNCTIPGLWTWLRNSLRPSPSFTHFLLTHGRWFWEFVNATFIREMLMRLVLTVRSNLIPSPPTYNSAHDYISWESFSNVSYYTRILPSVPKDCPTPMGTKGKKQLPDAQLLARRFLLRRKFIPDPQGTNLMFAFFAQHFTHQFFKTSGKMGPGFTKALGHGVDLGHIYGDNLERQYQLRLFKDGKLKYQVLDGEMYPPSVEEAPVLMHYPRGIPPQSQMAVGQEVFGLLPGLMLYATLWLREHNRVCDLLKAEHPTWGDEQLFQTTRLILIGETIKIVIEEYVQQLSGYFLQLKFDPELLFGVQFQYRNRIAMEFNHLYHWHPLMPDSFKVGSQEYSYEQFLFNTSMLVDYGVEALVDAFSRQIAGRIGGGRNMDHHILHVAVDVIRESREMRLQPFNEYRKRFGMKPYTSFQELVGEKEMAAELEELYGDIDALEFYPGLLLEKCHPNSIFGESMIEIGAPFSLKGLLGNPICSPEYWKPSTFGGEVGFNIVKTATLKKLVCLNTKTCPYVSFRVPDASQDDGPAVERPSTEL
Chain of Safetyscreen44 off target panel (Homo sapiens, UniProt P07550) (P07550 whole entry): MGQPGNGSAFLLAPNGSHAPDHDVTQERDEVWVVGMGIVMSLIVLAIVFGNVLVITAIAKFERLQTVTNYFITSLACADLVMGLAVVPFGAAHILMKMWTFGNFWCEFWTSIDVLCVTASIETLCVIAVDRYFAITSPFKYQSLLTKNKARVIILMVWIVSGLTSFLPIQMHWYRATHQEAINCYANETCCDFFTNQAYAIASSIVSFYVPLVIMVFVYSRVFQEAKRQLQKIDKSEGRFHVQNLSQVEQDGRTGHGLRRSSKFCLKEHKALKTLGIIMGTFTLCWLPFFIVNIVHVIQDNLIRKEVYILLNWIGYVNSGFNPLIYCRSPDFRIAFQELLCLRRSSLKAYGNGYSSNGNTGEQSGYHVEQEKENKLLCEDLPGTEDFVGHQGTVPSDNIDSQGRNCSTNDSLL
Chain of Safetyscreen44 off target panel (Homo sapiens, UniProt P11229) (P11229 whole entry): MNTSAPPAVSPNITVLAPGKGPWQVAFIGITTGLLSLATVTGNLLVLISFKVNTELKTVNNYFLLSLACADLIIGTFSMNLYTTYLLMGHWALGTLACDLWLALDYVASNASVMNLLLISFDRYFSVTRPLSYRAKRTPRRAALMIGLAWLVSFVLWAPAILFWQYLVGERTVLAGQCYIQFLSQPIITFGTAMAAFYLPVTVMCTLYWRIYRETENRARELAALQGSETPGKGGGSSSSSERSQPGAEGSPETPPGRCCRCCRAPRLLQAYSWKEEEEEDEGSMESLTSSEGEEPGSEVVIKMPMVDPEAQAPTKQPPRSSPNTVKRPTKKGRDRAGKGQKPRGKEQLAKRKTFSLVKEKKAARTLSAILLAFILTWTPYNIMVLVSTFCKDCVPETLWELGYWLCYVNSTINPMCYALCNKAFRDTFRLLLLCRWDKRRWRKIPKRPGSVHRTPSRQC
Chain of Safetyscreen44 off target panel (Homo sapiens, UniProt P31645) (P31645 whole entry): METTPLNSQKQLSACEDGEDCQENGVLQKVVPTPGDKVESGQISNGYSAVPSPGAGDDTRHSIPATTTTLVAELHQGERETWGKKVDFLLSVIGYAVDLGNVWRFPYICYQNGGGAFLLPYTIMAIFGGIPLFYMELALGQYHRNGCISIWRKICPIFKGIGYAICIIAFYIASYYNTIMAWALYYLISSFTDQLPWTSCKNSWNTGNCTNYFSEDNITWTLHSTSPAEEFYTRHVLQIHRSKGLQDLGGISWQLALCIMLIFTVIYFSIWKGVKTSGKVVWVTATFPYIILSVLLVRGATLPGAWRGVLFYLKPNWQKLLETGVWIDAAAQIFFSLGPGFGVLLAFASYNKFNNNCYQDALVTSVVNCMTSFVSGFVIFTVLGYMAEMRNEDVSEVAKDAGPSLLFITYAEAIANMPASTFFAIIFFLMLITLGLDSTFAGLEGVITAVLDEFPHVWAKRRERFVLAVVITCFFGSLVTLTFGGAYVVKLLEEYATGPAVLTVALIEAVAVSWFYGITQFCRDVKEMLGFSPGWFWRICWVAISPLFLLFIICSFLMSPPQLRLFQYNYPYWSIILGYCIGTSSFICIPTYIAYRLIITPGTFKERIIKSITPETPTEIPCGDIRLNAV
Chain of Safetyscreen44 off target panel (Homo sapiens, UniProt P20309) (P20309 whole entry): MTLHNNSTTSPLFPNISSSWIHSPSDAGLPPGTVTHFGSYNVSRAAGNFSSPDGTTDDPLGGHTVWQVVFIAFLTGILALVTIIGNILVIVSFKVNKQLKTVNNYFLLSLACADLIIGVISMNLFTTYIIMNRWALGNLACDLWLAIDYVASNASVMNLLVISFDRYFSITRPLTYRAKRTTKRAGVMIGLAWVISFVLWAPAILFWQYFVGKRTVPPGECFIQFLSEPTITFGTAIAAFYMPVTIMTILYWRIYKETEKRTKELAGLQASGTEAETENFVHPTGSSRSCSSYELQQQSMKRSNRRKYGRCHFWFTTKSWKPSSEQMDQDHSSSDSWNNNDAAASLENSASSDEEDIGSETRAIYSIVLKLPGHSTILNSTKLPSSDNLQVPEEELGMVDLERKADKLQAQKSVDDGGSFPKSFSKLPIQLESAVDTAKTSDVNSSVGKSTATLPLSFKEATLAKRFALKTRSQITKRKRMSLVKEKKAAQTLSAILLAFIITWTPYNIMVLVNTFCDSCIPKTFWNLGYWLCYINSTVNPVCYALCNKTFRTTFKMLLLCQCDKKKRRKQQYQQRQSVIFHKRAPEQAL
Chain of Safetyscreen44 off target panel (Homo sapiens, UniProt P41595) (P41595 whole entry): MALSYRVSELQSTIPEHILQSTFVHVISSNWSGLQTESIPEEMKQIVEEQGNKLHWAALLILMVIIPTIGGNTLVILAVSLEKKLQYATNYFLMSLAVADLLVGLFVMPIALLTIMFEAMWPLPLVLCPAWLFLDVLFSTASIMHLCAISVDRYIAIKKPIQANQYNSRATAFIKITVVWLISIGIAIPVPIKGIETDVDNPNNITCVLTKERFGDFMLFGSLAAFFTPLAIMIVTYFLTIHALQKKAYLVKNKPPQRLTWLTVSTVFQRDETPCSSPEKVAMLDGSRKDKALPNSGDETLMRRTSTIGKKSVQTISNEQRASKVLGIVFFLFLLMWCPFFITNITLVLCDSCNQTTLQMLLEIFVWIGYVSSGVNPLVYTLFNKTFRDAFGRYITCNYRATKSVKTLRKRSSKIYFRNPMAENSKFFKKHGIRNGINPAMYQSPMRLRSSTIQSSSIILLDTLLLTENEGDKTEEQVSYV
Chain of Safetyscreen44 off target panel (Homo sapiens, UniProt P08588) (P08588 whole entry): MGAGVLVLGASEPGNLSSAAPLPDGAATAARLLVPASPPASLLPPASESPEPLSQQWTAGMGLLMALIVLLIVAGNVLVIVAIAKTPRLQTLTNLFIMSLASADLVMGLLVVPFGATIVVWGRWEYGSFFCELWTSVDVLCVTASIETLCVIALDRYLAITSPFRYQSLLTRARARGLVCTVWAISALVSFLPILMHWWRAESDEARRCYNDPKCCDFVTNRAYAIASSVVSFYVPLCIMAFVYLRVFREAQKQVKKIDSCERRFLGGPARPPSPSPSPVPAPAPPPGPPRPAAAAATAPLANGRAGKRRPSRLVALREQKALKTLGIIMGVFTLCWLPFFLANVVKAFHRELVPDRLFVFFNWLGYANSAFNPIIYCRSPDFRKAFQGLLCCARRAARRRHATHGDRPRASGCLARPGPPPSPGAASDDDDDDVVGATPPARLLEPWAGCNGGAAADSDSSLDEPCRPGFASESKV
Chain of Safetyscreen44 off target panel (Homo sapiens, UniProt P32238) (P32238 whole entry): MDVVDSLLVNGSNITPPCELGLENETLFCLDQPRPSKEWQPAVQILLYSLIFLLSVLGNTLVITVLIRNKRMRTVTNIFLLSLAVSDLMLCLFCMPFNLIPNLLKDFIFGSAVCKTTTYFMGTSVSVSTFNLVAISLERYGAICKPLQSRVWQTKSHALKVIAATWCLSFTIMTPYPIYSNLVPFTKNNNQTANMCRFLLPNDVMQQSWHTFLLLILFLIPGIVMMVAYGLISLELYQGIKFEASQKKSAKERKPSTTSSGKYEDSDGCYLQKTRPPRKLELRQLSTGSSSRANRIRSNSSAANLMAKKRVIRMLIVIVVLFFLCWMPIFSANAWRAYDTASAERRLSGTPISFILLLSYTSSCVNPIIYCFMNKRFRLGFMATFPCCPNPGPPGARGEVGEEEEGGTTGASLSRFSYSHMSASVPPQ

Compound: C[C@H]1COc2c(N3CC[C@@H](Nc4ncccn4)C3)c(F)cc3c(=O)c(C(=O)O)cn1c23 [KSN-82-L22]
- % inhibition, H1 (h) (antagonist radioligand) [1]: 5.564%
- % inhibition, M2 (h) (antagonist radioligand) [2]: 1.066%
- % inhibition, M3 (h) (antagonist radioligand) [3]: 2.273%
- % inhibition, CCK1 (CCKA) (h) (agonist radioligand) [4]: −2.038%
- % inhibition, mu (MOP) (h) (agonist radioligand) [5]: 6.535%
- % inhibition, H2 (h) (antagonist radioligand) [6]: −40.1709%
- % inhibition, COX1 (h) [7]: 30.3185%
- % inhibition, 5-HT1A(h) (agonist radioligand) [8]: −3.77%
- % inhibition, 5-HT1B (antagonist radioligand) [9]: −16.7063%
- % inhibition, PDE3A (h) [10]: 7.502%
- % inhibition, A2A (h) (agonist radioligand) [11]: 53.628%
- % inhibition, Lck kinase (h) [12]: −2.891%
- % inhibition, delta (DOP) (h) (agonist radioligand) [13]: 2.159%
- % inhibition, CB1 (h) (agonist radioligand) [14]: 1.857%
- % inhibition, norepinephrine transporter (h) (antagonist radioligand) [15]: −6.471%
- % inhibition, beta 1 (h) (agonist radioligand) [16]: 1.921%
- % inhibition, CB2 (h) (agonist radioligand) [17]: 0%
- % inhibition, BZD (central) (agonist radioligand) [18]: −44.8289%
- % inhibition, Ca2+ channel (L, dihydropyridine site) (antagonist radioligand) [18]: 6.049%
- % inhibition, D2S (h) (agonist radioligand) [18]: −7.807%
- % inhibition, NMDA (antagonist radioligand) [18]: 12.6124%
- % inhibition, Na+ channel (site 2) (antagonist radioligand) [18]: 23.6539%
- % inhibition, PDE4D2 (h) [18]: 14.8003%
- % inhibition, alpha 1A (h) (antagonist radioligand) [18]: 11.5312%
- % inhibition, M1 (h) (antagonist radioligand) [19]: 3.129%
- % inhibition, MAO-A (antagonist radioligand) [20]: −9.13%
- % inhibition, dopamine transporter (h) (antagonist radioligand) [21]: 10.0257%
- % inhibition, N neuronal alpha 4beta 2 (h) (agonist radioligand) [22]: −41.8108%
- % inhibition, 5-HT transporter (h) (antagonist radioligand) [23]: −16.9663%
- % inhibition, acetylcholinesterase (h) [24]: 32.9861%
- % inhibition, 5-HT2B (h) (agonist radioligand) [25]: 5.374%
- % inhibition, beta 2 (h) (antagonist radioligand) [26]: 11.3086%
- % inhibition, V1a (h) (agonist radioligand) [27]: −12.5662%
- Clast ([28]; PO, Male CD1 mouse, blood, Mean): 628 ng/mL
- AUC [28, 29]: 8230 ng·h/mL and 19.3 µM·h
- AUC(0-inf) [28, 29]: 31 µM·h
- Cmax [28, 29]: 4.01 µM and 2960 ng/mL
- Tmax [28, 29]: 1 h
